Test results published in the CombiSolv-Exp solvation set (Vermeire and Green 2021).

Experiment: solvent given as SMILES

C1COCCO1
Settings | solvation free energy, 298 K [kcal/mol]
in Brc1ccccc1 | -5.08
in C1CCCCC1 | -4.15
in C1CCOC1 | -5.11
in CC1COC(=O)O1 | -4.98
in CC#N | -5.28
in CC(=O)N(C)C | -4.98
in CC(=O)O | -5.82
in CC(=O)c1ccccc1 | -5.03
in CC(C)(C)Cl | -4.78
in CC(C)(C)O | -4.79
in CC(C)=O | -5.07
in CC(C)CC(C)(C)C | -4.01
in CC(C)CCCC(C)CCCC(C)CCCCC(C)CCCC(C)CCCC(C)C | -3.8
in CC(C)CCO | -4.54
in CC(C)O | -4.55
in CC(C)OC(C)C | -4.39
in CCBr | -5.21
in CCC(C)=O | -5.01
in CCC(C)Cl | -4.7
in CCCC#N | -5.03
in CCCCC | -4.02
in CCCCCC | -4.06
in CCCCCCC | -4.01
in CCCCCCCCCC | -3.97
in CCCCCCCCCCCCCCCC | -3.81
in CCCCCl | -4.8
in CCCCN | -4.93
in CCCCN(C=O)CCCC | -4.58
in CCCCO | -4.56
in CCCCOCCCC | -4.31
in CCCO | -4.51
in CCN(CC)CC | -4.35
in CCO | -4.68
in CCOC(C)=O | -5.01
in CCOCC | -4.62
in CCOCCOCCOCC | -4.77
in CCOP(=O)(OCC)OCC | -4.63
in CCOc1ccccc1 | -4.85
in CN1CCCC1=O | -4.97
in CN1CCN(C)C1=O | -4.62
in CN(C)C=O | -5.06
in CN(C)P(=O)(N(C)C)N(C)C | -4.82
in CNC(C)=O | -4.67
in CNC=O | -4.87
in CO | -4.9
in COCCO | -4.92
in COc1ccccc1 | -5.06
in CS(C)=O | -4.84
in Cc1ccc(C)cc1 | -4.8
in Cc1cccc(C)n1 | -4.91
in Cc1cccc(O)c1 | -6.82
in Cc1ccccc1 | -4.91
in Cc1ccccn1 | -5.02
in ClC(Cl)(Cl)Cl | -4.95
in ClC(Cl)Cl | -6.11
in Clc1ccccc1 | -5.07
in FC(F)(F)C(F)(F)C(F)(F)C(F)(F)C(F)(F)C(F)(F)F | -2.75
in Fc1c(F)c(F)c(F)c(F)c1F | -4.93
in Fc1ccccc1 | -5.16
in ICI | -4.89
in Ic1ccccc1 | -4.94
in NC=O | -4.8
in Nc1ccccc1 | -5.65
in O | -5.06
in O=C1CCCCC1 | -4.98
in O=C1CCCO1 | -5.07
in O=CN1CCOCC1 | -4.73
in OCCO | -4.29
in OCCOCCOCCO | -3.88
in OCc1ccccc1 | -5.42
in S=C=S | -4.62
in [2H]O[2H] | -5.02
in c1ccc2ncccc2c1 | -4.87
in c1ccc(COCc2ccccc2)cc1 | -4.77
in c1ccccc1 | -5.16
in c1ccncc1 | -5.16

COP(=S)(OC)SCn1nnc2ccccc2c1=O
Settings | solvation free energy, 298 K [kcal/mol]
in O | -10

O=C1CCCO1
Settings | solvation free energy, 298 K [kcal/mol]
in CC(C)CC(C)(C)C | -4.99

BrC1CCCCC1
Settings | solvation free energy, 298 K [kcal/mol]
in O | -0.57

NCCc1ccc(O)cc1
Settings | solvation free energy, 298 K [kcal/mol]
in C=CCCCCCCC=C | -10
in O | -11.8

CCCC(C)C(C)O (stereo unspecified)
Settings | solvation free energy, 298 K [kcal/mol]
in CCCCCCCC | -5.31
in CCCCCCCCCC | -5.27

CC(=O)C1CC1
Settings | solvation free energy, 298 K [kcal/mol]
in O | -4.61

COP(=S)(OC)Oc1ccc([N+](=O)[O-])cc1
Settings | solvation free energy, 298 K [kcal/mol]
in O | -7.19

CCC(=O)CC(=O)CC
Settings | solvation free energy, 298 K [kcal/mol]
in O | -4.71

c1cc2ccc3ccc4ccc5cccc6c(c1)c2c3c4c56
Settings | solvation free energy, 298 K [kcal/mol]
in O | -8.98
in O=C1CCCCC1 | -19.4

C=O
Settings | solvation free energy, 298 K [kcal/mol]
in O | -2.75

CN1CCN(C)CC1
Settings | solvation free energy, 298 K [kcal/mol]
in O | -7.58

FC(F)(F)Br
Settings | solvation free energy, 298 K [kcal/mol]
in O | 1.79

CC1=CCCC(C)=CCC(C)(C)C=CC1
Settings | solvation free energy, 298 K [kcal/mol]
in O | 0.05

FC(F)(F)c1ccccc1C(F)(F)F
Settings | solvation free energy, 298 K [kcal/mol]
in O | 1.07

CCCCCC1CCCC1
Settings | solvation free energy, 298 K [kcal/mol]
in O | 2.55

COc1cc(Cl)c(Cl)c(Cl)c1Cl
Settings | solvation free energy, 298 K [kcal/mol]
in O | -2.55

CCC
Settings | solvation free energy, 298 K [kcal/mol]
in Brc1ccccc1 | -1.43
in C1CCC2CCCCC2C1 | -1.52
in C1COCCO1 | -1.24
in CC1COC(=O)O1 | -0.58
in CC(=O)N(C)C | -1.09
in CC(C)(C)O | -1.39
in CC(C)=O | -1.36
in CC(C)CCO | -1.33
in CC(C)CO | -1.32
in CC(C)O | -1.21
in CC(CC(C)(C)C)CC(C)(C)CC(C)(C)C | -2.21
in CCC(C)(C)O | -1.42
in CCC(C)CO | -1.32
in CCC(O)CC | -1.34
in CCCC(C)O | -1.34
in CCCCC | -1.81
in CCCCCC | -1.8
in CCCCCCC | -1.77
in CCCCCCCC | -1.74
in CCCCCCCCC | -1.71
in CCCCCCCCCC | -1.67
in CCCCCCCCCCCC | -1.54
in CCCCCCCCCCCCC | -1.54
in CCCCCCCCCCCCCC | -1.49
in CCCCCCCCCCCCCCC | -1.48
in CCCCCCCCCCCCCCCC | -1.42
in CCCCCCCCO | -1.28
in CCCCCCCO | -1.22
in CCCCCO | -1.32
in CCCCO | -1.35
in CCCO | -1.32
in CCO | -1.24
in CN1CCCC1=O | -0.89
in CN(C)C=O | -0.88
in CN(C)P(=O)(N(C)C)N(C)C | -1.15
in CO | -1.15
in COCCOCCO | -0.77
in COCCOCCOC | -1.24
in COCCOCCOCCOC | -0.95
in COCCOCCOCCOCCOC | -0.98
in CS(C)=O | -0.36
in Cc1ccc(C)cc1 | -1.56
in Cc1cccc(C)c1 | -1.62
in Cc1ccccc1C | -1.52
in ClC(Cl)(Cl)Cl | -1.83
in Clc1ccccc1 | -1.61
in Ic1ccccc1 | -1.51
in N#Cc1ccccc1 | -1.11
in NC=O | 0.19
in Nc1ccccc1 | -0.79
in O | 1.96
in OC1CCCCC1 | -1.1
in OCCCOCCCO | -0.57
in OCc1ccccc1 | -0.84
in c1ccccc1 | -1.61

ClC(Cl)C(Cl)Cl
Settings | solvation free energy, 298 K [kcal/mol]
in CC(C)=O | -6.28
in CCCCCCCCCCCCCCCC | -5.21
in CCCCCCCCO | -5.84
in ClC(Cl)(Cl)Cl | -5.93
in ClCCCl | -6.37
in O | -2.45
in [2H]O[2H] | -2.59

CCCCCCCCC=CCCCCCCCC(=O)OC
Settings | solvation free energy, 298 K [kcal/mol]
in O | -2.13

CC(=O)O
Settings | solvation free energy, 298 K [kcal/mol]
in C=CCCCCCCC=C | -2.71
in C=CCCCCCCCCCCCCCC | -2.41
in [2H]O[2H] | -6.55
